Where two headings read alike, the source gives them in different places.
Assays:
[1] = system: LNCaP (prostate carcinoma) cells; test: cells; type: cell-based, human; details: for cell survival: LNCaP, CV787 MOI 0.01
Experimental: In preliminary experiments, we examined the chemosensitivity to different agents, as well as the oncolytic effect of CV787 in the prostate carcinoma LNCaP cells. Cells were plated in 96-well plates at a density of 20,000 cells per well. […] […] Cells were incubated at 37° C. in 5% CO2 for an additional two days. Cell viability was measured using the MTT assay. Mosmann et al., (1983). Briefly, 50 μl of 1 mg/ml MTT vital dye (Sigma, St. Louis, Mo.) was added to each well and allowed to incubate for 3 h at 37° C. and 5% CO2. Then, plates were drained to remove untransformed MTT and blot. 100 μl of isopropanol was added to each well, the plate was incubated for 15 minutes and vigorously shaken (Microshaker II, Dynatech) in order to ensure solubilization of the blue formazan. The optical density of each well was quantitated using an automatic plate reader (Molecular Devices, Sunnyvale, Calif.) with a 560 nm test wavelength and 690 nm reference wavelength. Cell viability was defined as the ratio of the mean absorbance of 9 treatment wells minus the blank to the mean absorbance of 6 untreated matched controls minus the blank. […] Each experiment was performed at least twice.
To study potential synergy or enhancement in treatment when administering CV787 and chemotherapy in vitro, the effectiveness of the combined treatment at several concentrations of paclitaxel, ranging from 0-62.5 nM, […], with CV787 at various MOIs, ranging from 0-10 MOI, was evaluated in the prostate carcinoma LNCaP cells. Cells were treated with CV787 and paclitaxel or docetaxel and the cell viability was determined at various time points after treatment by an MTT assay, as shown in FIGS. 2-4. […] To determine whether the timing of administration for the testing articles affected the combined oncolytic effect, LNCaP cells were treated with paclitaxel for 24 hours before or after infection with CV787.
The protocols described above were used to screen a number of different chemotherapeutic agents from various classes of chemotherapeutics. […]

[2] = system: LNCaP prostate tumor xenografts; type: in vivo, athymic Balb/c nu/nu mice
Source text: Six to eight week old athymic Balb/c nu/nu mice were obtained from Simonson Laboratories (Gilroy, Calif.) and acclimatized to laboratory conditions one week prior to tumor implantation. Xenografts were established by injecting 1×10^6 LNCaP cells, suspended in 100 μd of RPMI 1640 and 100 μd of matrigel, subcutaneously near the small of the back. When tumors reached between 400 mm^3 and 600 mm^3, mice were randomized into groups of four. The first group received 1×10^10 particles of CV787 at day 1 via the tail vein intravenously (i.v.). CV787 was diluted in 0.1 ml lyophilized buffer (5% sucrose, 1% glycine, 1 mM MgCl2, 0.05% Tween-80 in 10 mM Tris buffer) and injected into the tail vein using a 28-gauge needle. The second group was given taxane only. Paclitaxel was intraperitoneally administered at a dose of 20 mg/kg, daily for 4 days starting at day 2. Docetaxel was intravenously administered at a dose of 5 or 12.5 mg/kg at day 2, 5 and 8. The third group was given CV787 (i.v.) at day 1 and taxane at the same doses and schedule as the second group. As a control, a fourth group was treated with 0.1 ml of normal saline (i.e. control) i.v. at day 1 and then i.p. or i.v. for 4 days. The dose and route of administration of paclitaxel were selected according to studies in nude mice (Riondel, J. et al., 1986, Cancer Chemother Pharmacol. 17:137-42.) (Chahinian, A. P. et al., 1998, J. Surg. Onc. 67:104-111.). For docetaxel, the dose was selected based on the human clinical dose. (RPR Pharm. Inc., Collegeville, Pa.) and determined by a dose-range finding study in nude mice. Tumors were measured weekly in two dimensions by external caliper and volume was estimated by the formula [length (mm)×width (mm)^2]/2 (7). Animals were humanely killed when their tumor burden became excessive. Serum was harvested weekly by retro-orbital bleed. The difference in mean tumor volume between treatment groups was compared for statistical significance using the unpaired, two-tailed, t-test. Blood samples were collected at various time points for determining prostate-specific antigen. Federal and institutional guidelines for animal care were followed.
Six to eight week old athymic Balb/c nu/nu mice were obtained from Simonson Laboratories (Gilroy, Calif.) and acclimatized to laboratory conditions one week prior to tumor implantation. Xenografts were established by injecting 1×10^6 LNCaP cells subcutaneously near the small of the back suspended in 100 μl of RPMI 1640 and 100 μl of maltrigel (Collaborative Biochemical Products). When tumors reached between 400 mm^3 and 600 mm^3, mice were randomized in groups of four each to receive either 1×10^10 particles of CV787 at day 1 via the tail vein or paclitaxel, 20 mg/kg intraperitoneally (i.p.) daily for 4 days starting at day 2, versus controls treated with normal saline 0.1 ml i.v. at day 1 and then i.p. for 4 days. In addition, another group of mice received the combination of CV787 and paclitaxel at the same doses and schedule as above. CV787 was diluted in lyophilized buffer and injected into tail vein in a volume of 0.1 ml using a 28-gauge needle. The dose and route of administration of paclitaxel were selected according to studies in nude mice by Riondel et al., (1986) Cancer Chemother Pharmacol. 17:137. These authors conducted acute toxicity studies of paclitaxel in nude mice and selected the unit dose of 12.5 mg/kg daily, being 1/20th of the LD50 dose (lethal dose for 50% of animals). Tumors were measured weekly in two dimensions by external caliper and volume was estimated by the formula [length (mm)×width (mm)^2]/2. Animals were humanely killed when their tumor burden became excessive. Serum was harvested weekly by retro-orbital bleed. The difference in mean tumor volume between treatment groups was compared for statistical significance using the unpaired, two-tailed, t-test. Blood samples were collected at various time points for determining prostate-specific antigen (PSA). […]

[3] = system: LNCaP prostate tumor xenografts; test: LNCaP xenograft antitumor efficacy, intratumorally administered CV787 with paclitaxel; type: in vivo, athymic Balb/c nu/nu mice; details: 6 weeks after treatment
Experimental: Six to eight week old athymic Balb/c nu/nu mice were obtained from Simonson Laboratories (Gilroy, Calif.) and acclimatized to laboratory conditions one week prior to tumor implantation. Xenografts were established by injecting 1×10^6 LNCaP cells subcutaneously near the small of the back suspended in 100 μl of RPMI 1640 and 100 μl of maltrigel (Collaborative Biochemical Products). When tumors reached between 400 mm^3 and 600 mm^3, mice were randomized in groups of four each to receive either 1×10^10 particles of CV787 at day 1 via the tail vein or paclitaxel, 20 mg/kg intraperitoneally (i.p.) daily for 4 days starting at day 2, versus controls treated with normal saline 0.1 ml i.v. at day 1 and then i.p. for 4 days. […] Tumors were measured weekly in two dimensions by external caliper and volume was estimated by the formula [length (mm)×width (mm)^2]/2. […]
The in vivo antitumor efficacy of intratumorally administered CV787 and the interaction of CV787 in the combination with paclitaxel was assessed in the LNCaP mouse xenograft model as described above. […]
All treatment groups received identical injections of the active agent or vehicle control into both the tumor and peritoneum. Tumor volume was measured just before the injection of test articles and once a week for 6 weeks thereafter.

[4] = system: LNCaP prostate tumor xenografts; type: in vivo, athymic Balb/c nu/nu mice; details: for change in tumor growth (FIG. 24): alone or with CV787 1×10^10 particles, 5 week period
[5] = system: caspase-7, poly-ADP-ribose-polymerase, Fas/Fas-L, Bcl-2, Bcl-XL, Bax; test: Immunoblot of apoptosis related protein markers in treated LNCaP cells; type: cell-based, human; details: docetaxel 6.0 nM, CV787 MOI 0.5
Source text: Enhanced chemiluminescence (ECL; Amersham Pharmacia) was used for detection. […] All antibodies were used according manufacturer's instruction.

[6] = type: in vivo, Balb/C mice; details: docetaxel alone
Source text: Finally, and of clinical significance are two other results. […] Indeed, animals treated with both CV787 and taxotere gain 24% more weight than untreated control animals (Table 2).

[7] = CV787 1×10^10 particles i.v. single dose, paclitaxel 20 mg/kg 4 doses

Compound	cell survival ([1]; 6 days after virus infection, paclitaxel 6.25 nM)	time after treatment at which the regression was produced [2, 7]	tumor regression produced [2, 7]	tumor growth inhibition compared with the control group ([2]; day 21, CV787 1×10^10 particles, paclitaxel 20 mg/kg)	relative tumor volume, % of baseline ([2]; four weeks after treatment, CV787 1×10^10 particles i.v. day 1, paclitaxel 20 mg/kg i.p. daily for 4 days)	relative tumor volume, % of baseline ([2]; ten weeks after treatment, CV787 1×10^10 particles i.v., paclitaxel 20 mg/kg)	average tumor volume ([3]; CV787 1×10^7 particles/mm^3 intratumoral day 1, paclitaxel 15 mg/kg daily for four days)	average tumor volume, % of baseline ([3]; CV787 1×10^7 particles/mm^3 intratumoral, paclitaxel 15 mg/kg)	change in tumor growth (FIG. 24) ([4]; paclitaxel 2 mg/kg)	change in tumor growth (FIG. 24) ([4]; paclitaxel 10 mg/kg)	IC50 ([1]; Homo sapiens, 120 h, LNCaP cells, day 5, dose-response curve analysis)	cell survival ([1]; day 7 post treatment, % of the control, docetaxel 3.12 nM 24 hour before virus)	change of Bcl-2 expression [5]	effect of single agent on tumor growth ([2]; CV787 1×10^10 particles i.v., docetaxel 5.0 mg/kg i.v.)	minimum tumor volume, % of the original tumor volume ([2]; docetaxel 5 mg/kg alone, reached by week 1)	course of tumor volume (FIG. 29) ([2]; docetaxel 5 mg/kg, CV787 1×10^10 particles (CV787 alone also 1×10^11 particles), 6 weeks)	body weight [6]	relative tumor volume, % of baseline ([4]; four weeks after treatment, CV787 1×10^10 particles i.v. day 1, docetaxel 10 mg/kg i.v.)
CC(=O)O[C@H]1C(=O)[C@@]2(C)[C@H]([C@H](OC(=O)c3ccccc3)[C@]3(O)C[C@H](OC(=O)[C@H](O)[C@@H](NC(=O)c4ccccc4)c4ccccc4)C(C)=C1C3(C)C)[C@]1(OC(C)=O)CO[C@@H]1C[C@@H]2O [paclitaxel]	100%	2 weeks	partial tumor regression	70%	31 % of baseline	149 % of baseline	630 mm^3	166 % of baseline	progressive enlargement of the tumor	merely arrests tumor growth								
CC(=O)O[C@@]12CO[C@@H]1C[C@H](O)[C@@]1(C)C(=O)[C@H](O)C3=C(C)[C@@H](OC(=O)[C@H](O)[C@@H](NC(=O)OC(C)(C)C)c4ccccc4)C[C@@](O)([C@@H](OC(=O)c4ccccc4)[C@H]21)C3(C)C [docetaxel]											8.14 nM	95%	did not observe a significant change	stabilization of tumor growth	approximately 50%	by week 6 has reached the starting tumor volume	transient weight loss	49 % of baseline

From US7276233B2, “Methods of treating neoplasia with combinations of target cell-specific adenovirus and chemotherapy” (priority 2001, dated 2007)
